Results reported in ChEMBL document CHEMBL1201862, “PubChem BioAssay data set” (2004).
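Each compound was tested at five concentrations against cells in 96-well plates for 48 hours. At the GI50, growth is halved.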 Active and inactive are the calls of the source. Cut-off read from the data, not from the text of the source: active = GI50 up to about 1.1 µM and inactive = higher.

How the values were obtained:
Experiment in all cases: growth of human tumour cells (NCI), 48 h
A549 = system: A549
CCRF-CEM = system: CCRF-CEM
HCT-116 = system: HCT-116
HCT-15 = system: HCT-15
HL-60 = system: HL-60
HOP-62 = system: HOP-62
Hs-578T = system: Hs-578T
K562 = system: K562
MDA-N = system: MDA-N
MOLT-4 = system: MOLT-4
NCI-H226 = system: NCI-H226
NCI/ADR-RES = system: NCI/ADR-RES
OVCAR-8 = system: OVCAR-8
T47D = system: T47D
UACC-257 = system: UACC-257
UO-31 = system: UO-31
OVCAR-4 = system: OVCAR-4
SK-OV-3 = system: SK-OV-3
SNB-75 = system: SNB-75

SMILES | GI50 (A549) | GI50 (CCRF-CEM) | GI50 (HCT-116) | GI50 (HCT-15) [µM] | GI50 (HL-60) | GI50 (HOP-62) | GI50 (Hs-578T) | GI50 (K562) | GI50 (MDA-N) | GI50 (MOLT-4) | GI50 (NCI-H226) | GI50 (NCI/ADR-RES) | GI50 (OVCAR-8) | GI50 (T47D) | GI50 (UACC-257) | GI50 (UO-31) | GI50 (OVCAR-4) | GI50 (SK-OV-3) | GI50 (SNB-75)
Cc1cc(OCc2nnc3n2N=C(c2cc(F)c(Cl)cc2Cl)/C(=C/c2ccc(-c4ccc(Cl)cc4)o2)S3)ccc1Cl | > 50 µM (inactive) | > 50 µM (inactive) | 48.2 µM (inactive) | 34 | > 50 µM (inactive) | > 50 µM (inactive) | > 50 µM (inactive) | 26.9 µM (inactive) | 21.5 µM (inactive) | > 50 µM (inactive) | 36.3 µM (inactive) | 12.1 µM (inactive) | > 50 µM (inactive) | 7.93 µM (inactive) | > 50 µM (inactive) | 48.5 µM (inactive) | – | – | –
N=C(N)NS(=O)(=O)c1ccc(Nc2c3ccccc3nc3c(C(=O)NNCCO)cccc23)cc1 | 0.473 µM (active) | 0.0541 µM (active) | 0.156 µM (active) | 0.33 | 0.227 µM (active) | 0.193 µM (active) | 0.249 µM (active) | 0.055 µM (active) | 0.136 µM (active) | 0.184 µM (active) | 0.19 µM (active) | > 1 µM (active) | 0.303 µM (active) | 0.12 µM (active) | 0.22 µM (active) | 0.416 µM (active) | 0.295 µM (active) | > 1 µM (active) | –
COc1ccc(-c2cc(-c3ccc(C)cc3)n(C3OC(COC(C)=O)C(OC(C)=O)C(OC(C)=O)C3OC(C)=O)c(=S)c2C#N)cc1 (centres undefined) | > 100 µM (inactive) | – | > 100 µM (inactive) | > 100 | 49.3 µM (inactive) | 37.1 µM (inactive) | 36.6 µM (inactive) | > 100 µM (inactive) | > 100 µM (inactive) | > 100 µM (inactive) | > 100 µM (inactive) | > 100 µM (inactive) | > 100 µM (inactive) | > 100 µM (inactive) | – | > 100 µM (inactive) | 29.2 µM (inactive) | > 100 µM (inactive) | 27 µM (inactive)
Clc1ccc2c(NC3CCC(N4CCCCC4)CC3)ccnc2c1 (centres undefined) | 31.8 µM (inactive) | 6.03 µM (inactive) | 13.4 µM (inactive) | 27.4 | 14.5 µM (inactive) | 29.9 µM (inactive) | 27.2 µM (inactive) | 3.3 µM (inactive) | 16.7 µM (inactive) | 14.6 µM (inactive) | 25.1 µM (inactive) | 34 µM (inactive) | 29.4 µM (inactive) | 29.4 µM (inactive) | 14.3 µM (inactive) | 13.9 µM (inactive) | 26.5 µM (inactive) | 57.9 µM (inactive) | –
COC(=O)c1c(C)nc(C)c(N=O)c1-c1ccccc1C(F)(F)F | > 100 µM (inactive) | 6 µM (inactive) | 16.4 µM (inactive) | 20.3 | 8 µM (inactive) | > 100 µM (inactive) | 19 µM (inactive) | 8.41 µM (inactive) | 19.7 µM (inactive) | 6.25 µM (inactive) | 19.4 µM (inactive) | 20.6 µM (inactive) | 17.9 µM (inactive) | 17.3 µM (inactive) | 14 µM (inactive) | 14.4 µM (inactive) | 16.1 µM (inactive) | > 100 µM (inactive) | –
C[N+](C)(C)c1ccc(C(N)C(=O)O)cc1 (centres undefined) | – | > 100 µM (inactive) | > 100 µM (inactive) | > 100 | 43.7 µM (inactive) | > 100 µM (inactive) | > 100 µM (inactive) | > 100 µM (inactive) | > 100 µM (inactive) | – | > 100 µM (inactive) | > 100 µM (inactive) | > 100 µM (inactive) | > 100 µM (inactive) | > 100 µM (inactive) | > 100 µM (inactive) | > 100 µM (inactive) | > 100 µM (inactive) | > 100 µM (inactive)
CC1(C)OCC(C2OC(N3O[C@H](CI)C[C@@H]3c3ccccc3)C3OC(C)(C)OC23)O1 (some centres undefined) | > 100 µM (inactive) | > 100 µM (inactive) | 61 µM (inactive) | > 100 | 66.5 µM (inactive) | > 100 µM (inactive) | > 100 µM (inactive) | > 100 µM (inactive) | > 100 µM (inactive) | – | – | > 100 µM (inactive) | – | > 100 µM (inactive) | > 100 µM (inactive) | > 100 µM (inactive) | > 100 µM (inactive) | > 100 µM (inactive) | > 100 µM (inactive)
Cn1c(=O)c2c(O)cc(N)nc2n(C)c1=O | > 100 µM (inactive) | > 100 µM (inactive) | > 100 µM (inactive) | – | > 100 µM (inactive) | > 100 µM (inactive) | > 100 µM (inactive) | > 100 µM (inactive) | > 100 µM (inactive) | > 100 µM (inactive) | > 100 µM (inactive) | > 100 µM (inactive) | 63.4 µM (inactive) | > 100 µM (inactive) | > 100 µM (inactive) | > 100 µM (inactive) | > 100 µM (inactive) | > 100 µM (inactive) | > 100 µM (inactive)
CC(C)(C(=O)NN)c1ccccc1 | > 100 µM (inactive) | > 100 µM (inactive) | > 100 µM (inactive) | > 100 | > 100 µM (inactive) | > 100 µM (inactive) | > 100 µM (inactive) | > 100 µM (inactive) | 42.4 µM (inactive) | > 100 µM (inactive) | – | > 100 µM (inactive) | > 100 µM (inactive) | > 100 µM (inactive) | > 100 µM (inactive) | 76.6 µM (inactive) | – | > 100 µM (inactive) | > 100 µM (inactive)
CN1CCN(c2nc3ccccc3nc2C(=O)c2ccc(Cl)cc2)CC1 | 54.2 µM (inactive) | 48.6 µM (inactive) | 35.2 µM (inactive) | 55.6 | 31 µM (inactive) | 59.4 µM (inactive) | 56.2 µM (inactive) | 40.8 µM (inactive) | 36.9 µM (inactive) | 65 µM (inactive) | – | 54.5 µM (inactive) | 69 µM (inactive) | 45.6 µM (inactive) | 36.1 µM (inactive) | 31 µM (inactive) | 58.6 µM (inactive) | > 100 µM (inactive) | > 100 µM (inactive)
CCOc1ccccc1/N=N/C1C(=O)N(C(=O)CC(=O)Nc2ccccc2Cl)N=C1C (centres undefined) | > 100 µM (inactive) | 68.7 µM (inactive) | 87.3 µM (inactive) | 26.9 | 32.8 µM (inactive) | 27.9 µM (inactive) | 22.4 µM (inactive) | – | > 100 µM (inactive) | > 100 µM (inactive) | > 100 µM (inactive) | 89.3 µM (inactive) | 88.3 µM (inactive) | > 100 µM (inactive) | > 10 µM (inactive) | 47.4 µM (inactive) | 71 µM (inactive) | 26.9 µM (inactive) | 42.2 µM (inactive)
CN(C)S(=O)(=O)c1ccc(Nc2ccc(O)c3c2C(=O)c2c([N+](=O)[O-])ccc(O)c2C3=O)cc1 | > 100 µM (inactive) | 4.39 µM (inactive) | 72.9 µM (inactive) | > 100 | > 100 µM (inactive) | > 100 µM (inactive) | > 100 µM (inactive) | > 100 µM (inactive) | > 100 µM (inactive) | 35.5 µM (inactive) | – | > 100 µM (inactive) | > 100 µM (inactive) | > 100 µM (inactive) | > 100 µM (inactive) | > 100 µM (inactive) | > 100 µM (inactive) | > 100 µM (inactive) | > 100 µM (inactive)
